ChEMBL document CHEMBL1201862, “PubChem BioAssay data set” (2004)
The source made the active and inactive calls.

Tests used:
[1] = target: Heat shock protein HSP 90-alpha (Homo sapiens, UniProt P07900); type: functional, organism-based
[2] = Trypanosoma cruzi growth suppression in host cells – NIH3T3 host cells, beta-gal luminescence, confirmation (AID 2044); type: functional, cell-based;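 note: intracellular parasites grown in NIH/3T3 mouse fibroblasts as host cells; luminescent beta-galactosidase reporter signal from transgenic T. cruzi replicating inside host cells; inhibitors lower the luminescence signal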
[3] = NIH3T3 cell viability loss – ATP luminescence, mouse fibroblasts, counter-screen, dose response (AID 2010); type: functional, cell-based;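 note: cells exposed to compound for about 90 hours before reading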
[4] = target: T1, Delta-type opioid receptor (Homo sapiens, UniProt P41143); assay: HTS Image-Based Screen for Agonists of the DOR Receptor. [Related pubchem assays (depositor defined):AID1777, AID1786, AID2133]; type: functional
Mu-type opioid receptor = Mu-type opioid receptor (Homo sapiens, UniProt P35372); assay: HTS Image-Based Screen for Agonists of the MOR Receptor. [Related pubchem assays (depositor defined):AID1777, AID1785, AID1786, AID2133]; type: functional;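 note: imaging of beta-arrestin GFP recruitment into spots after receptor activation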
Beta-galactosidase [5] = target: T2, Beta-galactosidase (Escherichia coli, UniProt Q8VNN2); assay: detection-enzyme interference by beta-gal modulators – biochemical, E. coli enzyme, set 3, artefact control for CCR6 antagonist project, dose response (AID 504712); type: functional
[6] = target: T3, Kappa-type opioid receptor (Homo sapiens, UniProt P41145); type: functional
[7] = target: T4, Microphthalmia-associated transcription factor (Homo sapiens, UniProt O75030); assay: reducers of TRPM1 reporter luminescence, concentration series – cell-based, SK-MEL-5, cherry-picked, set 3, MITF inhibitor project, dose response (AID 493073); type: functional;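 note: SK-MEL-5 melanoma cells with luciferase driven by the MITF target TRPM1 promoter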
T4 sequence (O75030 whole entry): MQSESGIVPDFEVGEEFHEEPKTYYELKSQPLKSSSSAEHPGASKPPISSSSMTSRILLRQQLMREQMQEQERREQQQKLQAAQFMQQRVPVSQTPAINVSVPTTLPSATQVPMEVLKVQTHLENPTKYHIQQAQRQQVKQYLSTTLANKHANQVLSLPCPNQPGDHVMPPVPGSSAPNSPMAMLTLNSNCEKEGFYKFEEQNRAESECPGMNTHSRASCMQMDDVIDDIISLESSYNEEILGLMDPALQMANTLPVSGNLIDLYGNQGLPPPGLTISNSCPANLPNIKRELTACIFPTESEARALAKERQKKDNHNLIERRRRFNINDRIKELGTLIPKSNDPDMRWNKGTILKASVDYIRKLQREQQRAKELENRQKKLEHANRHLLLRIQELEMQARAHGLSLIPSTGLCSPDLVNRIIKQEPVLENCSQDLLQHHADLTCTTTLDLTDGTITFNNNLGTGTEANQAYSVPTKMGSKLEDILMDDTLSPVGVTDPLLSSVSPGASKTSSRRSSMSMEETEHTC

[8] = target: T1, Delta-type opioid receptor; assay: HTS Image-Based Screen for Antagonists of the DOR Receptor. [Related pubchem assays (depositor defined):AID1777, AID1785, AID1786, AID2133]; type: functional
Beta-galactosidase [9] = target: T2, Beta-galactosidase; type: functional
Melanocortin receptor 4 = Melanocortin receptor 4 (Homo sapiens, UniProt P32245); assay: inhibitors of MC4R cAMP signaling – cell-based, TR-FRET, biased antagonists, dose response (AID 602298); type: functional;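 note: antagonist potency against agonist-stimulated cAMP production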
[10] = target: T3, Kappa-type opioid receptor; type: functional; remark: listed apart in the source
[11] = target: Glucose-6-phosphate 1-dehydrogenase (Homo sapiens, UniProt P11413); assay: inhibition of Homo sapiens G6PD, dose series – biochemical, fluorescence, selectivity assay for P. falciparum G6PD inhibitor project, dose response (AID 504792); type: functional
[12] = target: T5, Short transient receptor potential channel 4 (Mus musculus, UniProt Q9QUQ5); assay: block of DAMGO-driven TRPC4 calcium entry – cell-based, HEK293 TRPC4/mu-opioid, Fluo-4 calcium, dose response (AID 434942); type: functional;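 note: potency of inhibitors blocking the TRPC4 calcium response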
T5 sequence (Q9QUQ5 whole entry): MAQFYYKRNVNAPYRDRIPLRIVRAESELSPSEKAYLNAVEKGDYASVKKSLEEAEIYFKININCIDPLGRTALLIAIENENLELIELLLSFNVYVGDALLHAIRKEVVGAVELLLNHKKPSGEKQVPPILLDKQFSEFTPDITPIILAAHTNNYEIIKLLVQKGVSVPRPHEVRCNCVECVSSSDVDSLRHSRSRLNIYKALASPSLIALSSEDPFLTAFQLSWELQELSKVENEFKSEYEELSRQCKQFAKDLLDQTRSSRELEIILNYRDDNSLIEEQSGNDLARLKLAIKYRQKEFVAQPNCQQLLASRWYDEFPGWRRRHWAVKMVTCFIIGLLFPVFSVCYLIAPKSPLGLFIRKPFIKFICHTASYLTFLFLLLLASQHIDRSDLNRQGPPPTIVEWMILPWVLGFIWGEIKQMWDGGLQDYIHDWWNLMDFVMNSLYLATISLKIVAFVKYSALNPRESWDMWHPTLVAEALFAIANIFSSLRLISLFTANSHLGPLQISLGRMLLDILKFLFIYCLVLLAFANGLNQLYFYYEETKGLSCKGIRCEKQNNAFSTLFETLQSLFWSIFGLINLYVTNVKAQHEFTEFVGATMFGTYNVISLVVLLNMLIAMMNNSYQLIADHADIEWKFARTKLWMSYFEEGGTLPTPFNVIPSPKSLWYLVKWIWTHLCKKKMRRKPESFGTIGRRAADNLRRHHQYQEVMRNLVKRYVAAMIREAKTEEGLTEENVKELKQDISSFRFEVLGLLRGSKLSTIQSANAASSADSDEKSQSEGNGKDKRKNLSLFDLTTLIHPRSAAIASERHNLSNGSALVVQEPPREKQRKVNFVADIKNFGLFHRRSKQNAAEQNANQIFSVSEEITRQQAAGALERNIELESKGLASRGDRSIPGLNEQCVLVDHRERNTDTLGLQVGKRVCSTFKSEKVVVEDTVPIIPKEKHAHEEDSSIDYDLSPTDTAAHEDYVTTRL

[13] = cAMP pathway inhibition in counterscreen cell line – TR-FRET cAMP detection, counter-screen for MC4R biased antagonist project, dose response (AID 602305); type: functional, cell-based;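 note: U2OS cells stimulated with forskolin near its EC80 as the cAMP inducer; potency is for inhibition of forskolin-stimulated cAMP signaling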
Cytochrome P450 2D6 = Cytochrome P450 2D6 (Homo sapiens, UniProt P10635);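 note: CYP2D6 member of a cytochrome P450 panel assay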
Protein Wnt-3a = Protein Wnt-3a (Mus musculus, UniProt P27467); assay: antagonism of Wnt3a pathway luciferase reporter – Wnt-LIGHT cells, luminescence, selectivity assay for Gli-SUFU antagonist project, dose response (AID 651570); type: functional; conditions: read-out: IC50_Mean;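 note: Wnt-LIGHT reporter cells stimulated with conditioned medium from Wnt3a-producing cells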
Cytochrome P450 3A4 = Cytochrome P450 3A4 (Homo sapiens, UniProt P08684);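 note: CYP3A4 tested as one member of a cytochrome P450 panel screen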
Orexin receptor type 2 [14] = target: T6, Orexin receptor type 2 (Homo sapiens, UniProt O43614); assay: Counterscreen assay for antagonists of the orexin 1 receptor (OX1R; HCRTR1): Fluorescence-based cell-based dose response assay for antagonists of the orexin 2 receptor (OX2R; HCRTR2), run by assay provider.; type: functional
T6 sequence (O43614 whole entry): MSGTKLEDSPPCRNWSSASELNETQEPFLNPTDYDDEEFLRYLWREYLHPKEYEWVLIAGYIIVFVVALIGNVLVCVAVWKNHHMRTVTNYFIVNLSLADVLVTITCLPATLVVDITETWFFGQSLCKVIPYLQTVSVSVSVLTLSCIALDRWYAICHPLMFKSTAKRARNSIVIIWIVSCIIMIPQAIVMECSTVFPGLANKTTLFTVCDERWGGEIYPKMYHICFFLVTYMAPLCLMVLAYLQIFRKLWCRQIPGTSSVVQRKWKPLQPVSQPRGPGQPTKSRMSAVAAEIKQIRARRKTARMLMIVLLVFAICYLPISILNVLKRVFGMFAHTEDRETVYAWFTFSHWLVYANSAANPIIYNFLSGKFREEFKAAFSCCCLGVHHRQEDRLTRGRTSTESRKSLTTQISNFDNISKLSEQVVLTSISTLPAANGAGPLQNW

[15] = target: T7, Orexin/Hypocretin receptor type 1 (Homo sapiens, UniProt O43613); assay: Fluorescence-based cell-based high throughput dose response assay for antagonists of the orexin 1 receptor (OX1R; HCRTR1). [Related pubchem assays (depositor defined):AID434989, AID435008, AID463079, AID485270, AID492963, AID492964, AID492965, AID493232, AID504717, AID504718]; type: functional
T7 sequence (O43613 whole entry): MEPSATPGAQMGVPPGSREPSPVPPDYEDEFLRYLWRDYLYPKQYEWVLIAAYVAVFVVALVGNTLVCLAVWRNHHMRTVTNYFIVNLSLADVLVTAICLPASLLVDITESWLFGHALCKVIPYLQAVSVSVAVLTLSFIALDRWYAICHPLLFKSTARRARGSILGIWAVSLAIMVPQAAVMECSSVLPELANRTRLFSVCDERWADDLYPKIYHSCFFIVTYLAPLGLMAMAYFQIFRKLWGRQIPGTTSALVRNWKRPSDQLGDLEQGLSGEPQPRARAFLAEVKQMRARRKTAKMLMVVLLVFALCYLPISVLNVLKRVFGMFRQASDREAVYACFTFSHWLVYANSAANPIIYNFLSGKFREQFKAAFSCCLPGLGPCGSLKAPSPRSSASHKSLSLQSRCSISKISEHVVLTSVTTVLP

[16] = Counterscreen for antagonists of the orexin 1 receptor (OX1R; HCRTR1): Fluorescence-based cell-based high throughput dose response assay to identify antagonists of the parental CHO cell line. [Related pubchem assays (depositor defined):AID434989, AID435008, AID463079, AID485270, AID492963, AID492964, AID492965, AID493232, AID504699, AID504701]; type: functional
Orexin receptor type 2 [17] = target: T6, Orexin receptor type 2; assay: Counterscreen assay for antagonists of the orexin 1 receptor (OX1R; HCRTR1): Homogeneous Time Resolved Fluorescence (HTRF)-based cell-based dose response assay for antagonists of the orexin 2 receptor (OX2R; HCRTR2), run by assay provider.; type: functional
[18] = target: T7, Orexin/Hypocretin receptor type 1; assay: Homogeneous Time Resolved Fluorescence (HTRF)-based cell-based high throughput dose response assay for antagonists of the orexin 1 receptor (OX1R; HCRTR1). [Related pubchem assays (depositor defined):AID434989, AID435008, AID463079, AID485270, AID492963, AID492964, AID492965, AID493232, AID504717, AID504718]; type: functional
CHO-K1 = assay: Counterscreen for antagonists of the orexin 1 receptor (OX1R; HCRTR1): Homogeneous time resolved fluorescence (HTRF)-based cell-based dose response assay to identify antagonists of the parental CHO-K1 cell line. [Related pubchem assays (depositor defined):AID434989, AID435008, AID463079, AID485270, AID492963, AID492964, AID492965, AID493232, AID504699, AID504701]; type: functional; conditions: Cricetulus griseus
[19] = target: T8, Carboxy-terminal domain RNA polymerase II polypeptide A small phosphatase 1 (Homo sapiens, UniProt Q9GZU7); assay: CTDSP1 inhibitors, concentration-response, biochemical, absorbance readout, ultra-high-throughput screen actives (AID 540297); type: functional
T8 sequence (Q9GZU7 whole entry): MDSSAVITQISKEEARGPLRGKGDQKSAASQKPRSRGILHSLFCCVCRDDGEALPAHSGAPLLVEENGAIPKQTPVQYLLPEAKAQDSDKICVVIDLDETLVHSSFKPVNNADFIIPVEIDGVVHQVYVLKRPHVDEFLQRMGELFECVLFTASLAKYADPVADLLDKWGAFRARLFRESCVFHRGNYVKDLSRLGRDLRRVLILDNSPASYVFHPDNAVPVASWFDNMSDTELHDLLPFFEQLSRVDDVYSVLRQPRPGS

P388/ADR = assay: cells; type: functional; conditions: Mus musculus
SN12K1 = assay: cells; type: functional; conditions: Homo sapiens
P388 = assay: cells; type: functional; conditions: Mus musculus
[20] = mammalian cell viability loss – Alamar Blue, dry powder, cytotoxicity control for antifungal single agent project, dose response (AID 602188); type: functional, cell-based
[21] = target: Ras and Rab interactor 1/Tyrosine-protein kinase ABL1 (Homo sapiens, UniProt P00519+Q13671); type: functional;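 note: biochemical TR-FRET dose-response test measuring inhibition of binding between Rin1 and Abl proteins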
Ras and Rab interactor 1/Tyrosine-protein kinase ABL1, sequence (P00519 whole entry): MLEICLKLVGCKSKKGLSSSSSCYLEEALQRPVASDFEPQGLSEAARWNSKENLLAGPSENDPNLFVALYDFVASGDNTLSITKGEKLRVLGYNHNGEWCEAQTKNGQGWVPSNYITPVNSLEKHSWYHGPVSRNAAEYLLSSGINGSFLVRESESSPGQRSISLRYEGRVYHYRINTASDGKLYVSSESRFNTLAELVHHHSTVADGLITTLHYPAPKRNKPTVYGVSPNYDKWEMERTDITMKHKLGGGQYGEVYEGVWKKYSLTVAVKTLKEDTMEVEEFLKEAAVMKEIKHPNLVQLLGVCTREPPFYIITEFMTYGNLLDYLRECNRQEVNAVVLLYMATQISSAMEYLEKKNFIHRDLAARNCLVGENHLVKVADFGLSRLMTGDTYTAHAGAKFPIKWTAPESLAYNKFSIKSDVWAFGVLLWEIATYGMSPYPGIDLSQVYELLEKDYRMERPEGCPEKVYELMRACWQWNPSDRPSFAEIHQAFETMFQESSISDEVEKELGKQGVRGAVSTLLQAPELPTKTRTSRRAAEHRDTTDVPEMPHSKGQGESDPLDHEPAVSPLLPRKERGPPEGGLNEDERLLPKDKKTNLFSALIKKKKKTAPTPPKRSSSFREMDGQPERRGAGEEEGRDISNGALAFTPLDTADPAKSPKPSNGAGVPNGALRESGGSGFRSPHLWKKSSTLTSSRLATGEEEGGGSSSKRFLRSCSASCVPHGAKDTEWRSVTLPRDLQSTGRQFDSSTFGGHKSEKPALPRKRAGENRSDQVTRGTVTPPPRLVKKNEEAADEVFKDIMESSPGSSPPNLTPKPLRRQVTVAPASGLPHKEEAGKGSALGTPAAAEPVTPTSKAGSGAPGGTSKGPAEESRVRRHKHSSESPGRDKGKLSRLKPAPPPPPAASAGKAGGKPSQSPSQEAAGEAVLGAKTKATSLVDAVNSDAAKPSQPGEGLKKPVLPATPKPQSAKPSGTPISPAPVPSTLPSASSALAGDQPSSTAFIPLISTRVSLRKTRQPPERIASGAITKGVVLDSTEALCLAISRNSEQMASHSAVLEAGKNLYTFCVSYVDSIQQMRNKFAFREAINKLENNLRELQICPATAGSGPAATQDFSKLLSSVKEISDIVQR
Ras and Rab interactor 1/Tyrosine-protein kinase ABL1, sequence (Q13671 whole entry): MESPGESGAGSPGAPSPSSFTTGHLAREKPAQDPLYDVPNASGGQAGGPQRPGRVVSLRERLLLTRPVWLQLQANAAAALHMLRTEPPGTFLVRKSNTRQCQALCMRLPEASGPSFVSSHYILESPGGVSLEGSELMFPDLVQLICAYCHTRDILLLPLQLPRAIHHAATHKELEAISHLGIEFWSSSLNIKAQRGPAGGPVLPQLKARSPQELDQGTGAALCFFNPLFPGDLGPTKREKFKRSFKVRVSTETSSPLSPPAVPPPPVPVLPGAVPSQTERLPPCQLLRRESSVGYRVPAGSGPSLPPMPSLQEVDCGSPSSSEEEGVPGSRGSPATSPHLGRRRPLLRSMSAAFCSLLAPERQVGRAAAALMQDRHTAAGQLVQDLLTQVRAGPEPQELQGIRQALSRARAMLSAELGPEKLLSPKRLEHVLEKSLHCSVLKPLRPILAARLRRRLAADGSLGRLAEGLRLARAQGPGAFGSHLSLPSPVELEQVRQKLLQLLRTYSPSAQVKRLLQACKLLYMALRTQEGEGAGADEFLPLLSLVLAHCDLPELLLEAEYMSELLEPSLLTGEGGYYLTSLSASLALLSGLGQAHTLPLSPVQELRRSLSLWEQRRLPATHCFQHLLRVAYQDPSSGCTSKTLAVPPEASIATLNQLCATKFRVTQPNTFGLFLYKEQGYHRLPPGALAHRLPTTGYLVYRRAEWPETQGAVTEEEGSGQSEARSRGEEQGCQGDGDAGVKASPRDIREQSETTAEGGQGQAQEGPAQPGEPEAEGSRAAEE

T2 sequence (Q8VNN2 whole entry): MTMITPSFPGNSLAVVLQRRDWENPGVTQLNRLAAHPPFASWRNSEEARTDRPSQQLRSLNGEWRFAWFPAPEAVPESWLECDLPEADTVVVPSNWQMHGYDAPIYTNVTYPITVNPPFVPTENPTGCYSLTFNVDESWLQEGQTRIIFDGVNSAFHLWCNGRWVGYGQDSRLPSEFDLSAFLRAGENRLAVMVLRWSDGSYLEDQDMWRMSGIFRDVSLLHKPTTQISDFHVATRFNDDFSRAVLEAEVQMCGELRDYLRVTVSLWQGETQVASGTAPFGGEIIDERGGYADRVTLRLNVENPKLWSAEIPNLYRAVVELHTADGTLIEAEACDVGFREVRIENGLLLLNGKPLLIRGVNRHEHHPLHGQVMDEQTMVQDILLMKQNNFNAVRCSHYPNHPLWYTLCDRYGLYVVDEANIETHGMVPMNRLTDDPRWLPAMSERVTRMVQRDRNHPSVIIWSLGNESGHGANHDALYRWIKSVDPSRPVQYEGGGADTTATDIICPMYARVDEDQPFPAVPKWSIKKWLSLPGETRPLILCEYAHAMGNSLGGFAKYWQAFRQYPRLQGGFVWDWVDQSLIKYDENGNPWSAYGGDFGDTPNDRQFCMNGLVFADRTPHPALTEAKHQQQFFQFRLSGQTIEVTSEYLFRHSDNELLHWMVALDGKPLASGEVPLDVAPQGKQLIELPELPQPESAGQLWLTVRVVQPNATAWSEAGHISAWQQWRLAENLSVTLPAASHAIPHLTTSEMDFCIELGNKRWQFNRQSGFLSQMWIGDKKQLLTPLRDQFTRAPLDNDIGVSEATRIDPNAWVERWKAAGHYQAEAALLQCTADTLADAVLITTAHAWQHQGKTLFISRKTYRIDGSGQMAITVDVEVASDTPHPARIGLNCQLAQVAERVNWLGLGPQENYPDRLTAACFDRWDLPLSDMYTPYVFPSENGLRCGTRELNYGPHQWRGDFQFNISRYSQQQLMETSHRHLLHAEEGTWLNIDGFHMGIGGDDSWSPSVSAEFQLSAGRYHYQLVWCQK
T1 sequence (P41143 whole entry): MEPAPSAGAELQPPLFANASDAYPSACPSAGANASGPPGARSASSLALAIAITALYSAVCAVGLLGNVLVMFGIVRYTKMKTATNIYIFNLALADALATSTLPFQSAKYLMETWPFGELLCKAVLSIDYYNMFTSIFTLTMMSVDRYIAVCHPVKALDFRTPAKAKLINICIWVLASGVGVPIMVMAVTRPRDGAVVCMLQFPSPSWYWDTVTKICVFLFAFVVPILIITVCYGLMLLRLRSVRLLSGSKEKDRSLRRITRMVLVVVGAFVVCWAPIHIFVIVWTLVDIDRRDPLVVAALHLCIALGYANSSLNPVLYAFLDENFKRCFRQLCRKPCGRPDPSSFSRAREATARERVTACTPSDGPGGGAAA
T3 sequence (P41145 whole entry): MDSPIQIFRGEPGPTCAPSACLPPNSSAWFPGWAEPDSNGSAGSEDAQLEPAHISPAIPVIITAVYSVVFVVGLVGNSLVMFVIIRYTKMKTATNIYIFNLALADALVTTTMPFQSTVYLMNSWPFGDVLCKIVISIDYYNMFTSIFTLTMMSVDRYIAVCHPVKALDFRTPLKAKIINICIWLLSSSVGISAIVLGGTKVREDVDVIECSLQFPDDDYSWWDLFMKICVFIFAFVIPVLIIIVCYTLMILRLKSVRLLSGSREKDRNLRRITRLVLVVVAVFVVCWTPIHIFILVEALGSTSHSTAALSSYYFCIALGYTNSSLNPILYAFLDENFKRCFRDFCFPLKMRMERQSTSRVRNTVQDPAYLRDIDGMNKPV
Melanocortin receptor 4, sequence (P32245 whole entry): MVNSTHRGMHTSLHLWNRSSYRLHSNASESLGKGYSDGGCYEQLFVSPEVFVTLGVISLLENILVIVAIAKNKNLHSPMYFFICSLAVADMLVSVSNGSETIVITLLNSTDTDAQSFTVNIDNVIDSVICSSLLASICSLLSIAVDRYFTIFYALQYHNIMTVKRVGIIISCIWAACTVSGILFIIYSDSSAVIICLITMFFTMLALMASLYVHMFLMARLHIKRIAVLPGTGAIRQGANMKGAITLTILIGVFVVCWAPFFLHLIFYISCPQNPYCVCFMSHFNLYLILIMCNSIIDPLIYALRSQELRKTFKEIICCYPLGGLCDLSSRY
Cytochrome P450 3A4, sequence (P08684 whole entry): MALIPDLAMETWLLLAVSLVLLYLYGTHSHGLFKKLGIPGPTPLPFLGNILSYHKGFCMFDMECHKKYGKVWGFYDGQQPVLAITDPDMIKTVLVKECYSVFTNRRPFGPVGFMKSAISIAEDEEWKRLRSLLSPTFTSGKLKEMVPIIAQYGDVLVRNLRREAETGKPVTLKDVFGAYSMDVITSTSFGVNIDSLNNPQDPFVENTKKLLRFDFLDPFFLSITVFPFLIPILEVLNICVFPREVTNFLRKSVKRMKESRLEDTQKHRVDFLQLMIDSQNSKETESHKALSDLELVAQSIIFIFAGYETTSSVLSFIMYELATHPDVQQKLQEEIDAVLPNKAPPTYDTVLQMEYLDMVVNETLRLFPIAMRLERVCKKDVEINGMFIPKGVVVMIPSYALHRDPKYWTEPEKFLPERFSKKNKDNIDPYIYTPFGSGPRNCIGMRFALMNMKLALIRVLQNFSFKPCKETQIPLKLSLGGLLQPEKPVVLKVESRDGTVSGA
Cytochrome P450 2D6, sequence (P10635 whole entry): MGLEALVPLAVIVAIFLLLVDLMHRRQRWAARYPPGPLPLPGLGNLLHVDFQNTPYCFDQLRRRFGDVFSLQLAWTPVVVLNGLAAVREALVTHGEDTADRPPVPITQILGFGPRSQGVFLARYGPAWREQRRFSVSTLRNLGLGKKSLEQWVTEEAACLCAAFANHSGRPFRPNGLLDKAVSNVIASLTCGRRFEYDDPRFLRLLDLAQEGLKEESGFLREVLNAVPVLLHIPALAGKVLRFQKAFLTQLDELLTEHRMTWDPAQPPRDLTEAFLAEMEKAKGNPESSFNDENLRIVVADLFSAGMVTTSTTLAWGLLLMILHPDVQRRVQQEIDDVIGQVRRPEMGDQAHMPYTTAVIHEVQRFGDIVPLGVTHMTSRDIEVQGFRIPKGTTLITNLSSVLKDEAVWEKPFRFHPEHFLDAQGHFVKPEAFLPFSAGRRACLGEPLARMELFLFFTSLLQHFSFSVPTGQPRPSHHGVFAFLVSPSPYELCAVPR

## Cc1ccc(NC(=O)c2cc(N3C(=O)C=CC3=O)ccc2N2CCOCC2)cc1
[1]
  AC50: 0.591 µM (active)
[2]
  EC50: 2.85 µM (active)
[3]
  EC50: 6.01 µM (active)
[4]
  EC50: > 32 µM (inactive)
Mu-type opioid receptor
  EC50: > 32 µM (inactive)
Beta-galactosidase [5]
  IC50: > 66.6 µM (inactive)
[6]
  IC50: 8.25 µM (active)
[7]
  AC50: 11.6 µM (active)
[8]
  IC50: > 32 µM (inactive)
Beta-galactosidase [9]
  EC50: > 31.5 µM (inactive)
Melanocortin receptor 4
  IC50: 11.9 µM (inactive)
[10]
  IC50: 23.7 µM
[11]
  IC50: 53 µM (inactive)
[12]
  EC50: 5.31 µM (active)
[13]
  IC50: 39 µM (inactive)

## FC(F)(F)c1ccc(N2CCN(c3cc(-c4ccccc4)nc4ncnn34)CC2)nc1
Cytochrome P450 2D6
  AC50: 11.2 µM (inconclusive)
Protein Wnt-3a
  IC50: 5.78 µM (active)
Cytochrome P450 3A4
  AC50: inconclusive

## O=C(OCc1cc(=O)n2c(n1)sc1ccccc12)c1cccc(O)c1
Orexin receptor type 2 [14]
  IC50: > 88.8 µM (inactive)
[15]
  IC50: 5.73 µM (active)
[16]
  IC50: 37 µM (inactive)
Orexin receptor type 2 [17]
  IC50: > 50 µM (inactive)
[18]
  IC50: 5.46 µM (active)
CHO-K1
  IC50: > 66.2 µM (inactive)
[19]
  IC50: 3.87 µM (active)

## CC(C)Cc1ccc(C(C)CC2=CCC(CN(C)C)C2=O)cc1 (configuration not stated)
P388/ADR
  GI50: 1.09 µM (active)
SN12K1
  GI50: 3.33 µM (inactive)
Melanocortin receptor 4
  IC50: 8.78 µM (active)
[13]
  IC50: > 64.7 µM (inactive)
P388
  GI50: 2.02 µM (inactive)

## Oc1c(CN2CCN(c3ccccc3)CC2)cc(Cl)c2cccnc12
[20]
  AC50: 0.964 µM (active)

## CCOC(=O)CCCCC(=O)c1[nH]c(=O)[nH]c1Cn1ccnc1
[21]
  IC50: 12.8 µM (inactive)
